Source: patent US10125101B2, “Indanylaminopyridylcyclopropanecarboxylic acids, pharmaceutical compositions and uses thereof” (Boehringer Ingelheim International GmbH, priority 2016, dated 2018)
Converted amounts (≈) assume the structure as drawn. Read-outs that look alike come from different tables or passages of the source.

Experiments:
[1] = Chemical stability (degradation kinetics) in acidic aqueous media; format: physicochemical; conditions: pH value ca. 1.2 (acetonitrile/0.1 M aqueous HCl 2:3), 37° C.
Protocol: Degradation kinetics is used to simulate chemical stability of compounds in the acidic part of the gastro intestinal tract. […] Their application as medical drugs to treat human diseases is therefore less restricted and troublesome.
The chemical stability of the compounds of the invention at pH value of ca. 1.2 is determined as follows:
Compound is dissolved in an HPLC vial either in a mixture of acetonitrile/0.1 M aqueous HCl (2:3; pH ca. 1.2) or in a mixture of acetonitrile/McIlvaine buffer pH 7.4 (2:3) to get a concentration of approximately 0.25 mg/ml. The vial was then transferred into an HPLC autosampler system and maintained at a temperature of 37° C. A first sample is taken and injected immediately into a standard HPLC system with a UV DAD detector. Further samples are injected after 2, 4, 6, 8 and 10 hours. Amount of degraded compound is measured by determining the recovery rate of compound [%] for each injection using an HPLC standard gradient method. Therefore the peak area of the main peak for the first injection (AUt0) is determined and set as 100%. Peak area of the main peak is determined also for the further injections (AUtn, n=2, 4, 6, 8, 10) and expressed as fraction of (AUt0)/(AUtn, n=2, 4, 6, 8, 10) [%].

[2] = molecular target: cytochrome P450 2C9-isoenzyme (Homo sapiens (Human), UniProt P11712); assay: Inhibition of CYP-2C9 (diclofenac hydroxylation, human liver microsomes); format: in vitro ADME; conditions: diclofenac 10 μM, 37° C.
Chain of cytochrome P450 2C9-isoenzyme (P11712 whole entry): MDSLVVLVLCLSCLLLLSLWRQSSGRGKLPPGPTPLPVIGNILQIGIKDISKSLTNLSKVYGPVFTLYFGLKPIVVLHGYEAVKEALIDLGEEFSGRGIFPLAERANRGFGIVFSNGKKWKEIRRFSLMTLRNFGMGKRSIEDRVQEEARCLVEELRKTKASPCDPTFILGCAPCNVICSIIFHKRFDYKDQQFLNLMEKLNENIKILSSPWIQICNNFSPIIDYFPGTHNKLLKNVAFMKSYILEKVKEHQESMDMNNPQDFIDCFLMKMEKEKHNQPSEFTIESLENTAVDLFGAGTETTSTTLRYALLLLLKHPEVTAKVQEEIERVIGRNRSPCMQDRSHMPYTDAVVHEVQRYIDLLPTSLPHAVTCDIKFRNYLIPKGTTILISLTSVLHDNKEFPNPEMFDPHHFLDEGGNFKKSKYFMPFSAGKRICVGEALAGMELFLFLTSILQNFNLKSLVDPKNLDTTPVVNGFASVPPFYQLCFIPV
Protocol: (§1) All assays are carried out on a robotic system in 96 well plates. The final incubation volume contains TRIS buffer (0.1 M), MgCl2 (5 mM), human liver microsomes (0.1 mg/mL), diclofenac (10 μM) and the test compound at five different concentrations or no compound (high control) in duplicate (e.g., highest concentration 10-50 μM with subsequent serial 1:4 dilutions). Following a short preincubation period, reactions are started with the cofactor (NADPH, 1 mM) and stopped by cooling the incubation down to 8° C. and subsequently by addition of one volume of acetonitrile. An internal standard solution—the stable isotope ^13C6-hydroxydiclofenac—is added after quenching of incubations. Peak area analyte (=metabolite formed) and internal standard is determined by LC-MS/MS. The resulting peak area ratio analyte to internal standard in these incubations is compared to a control activity containing no test compound. Within each of the assay runs, the IC50 of a positive control inhibitor (sulfaphenazole) is determined.

[3] = Aqueous solubility; format: physicochemical; conditions: buffer pH 2.2, 24 h shaking, 2.5% DMSO; for solubility at 24 h: aqueous buffer, kinetic from dmso stock
Protocol: Starting from a 10 mM DMSO stock solution aliquots are diluted with acetonitrile/water (1/1) or buffer, respectively. After 24 h of shaking, the solutions are filtrated and analyzed by LC-UV. The amount dissolved in buffer is compared to the amount in the acetonitrile solution.

[4] = molecular target: human GPR40 receptor (Homo sapiens (Human), UniProt O14842); assay: IP1 accumulation measurements using the IPOne assay system; format: cell-based
Chain of human GPR40 receptor (O14842 whole entry): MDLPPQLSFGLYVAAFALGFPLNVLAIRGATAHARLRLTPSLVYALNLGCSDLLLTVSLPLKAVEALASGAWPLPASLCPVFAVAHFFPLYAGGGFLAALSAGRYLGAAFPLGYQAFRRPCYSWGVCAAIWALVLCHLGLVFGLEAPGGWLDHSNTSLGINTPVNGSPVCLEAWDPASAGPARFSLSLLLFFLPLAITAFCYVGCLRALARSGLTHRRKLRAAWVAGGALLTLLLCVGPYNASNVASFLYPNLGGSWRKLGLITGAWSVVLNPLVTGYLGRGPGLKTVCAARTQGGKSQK
Protocol: IP1 accumulation measurements using the IPOne assay system—1321N1 cells stably expressing human GPR40 receptor (Euroscreen, Belgium) are seeded 24 h before the assay in white 384-well plates in culture medium containing 10% FCS, 1% Na-Pyruvate and 400 μg/mL G418. IP1 is assayed according to the manufacturer's description (Cisbio Bioassays, France). In brief, the assay is started by substitution of the culture medium by stimulation buffer (Hepes 10 mM, CaCl2 1 mM, MgCl2 0.5 mM, KCl 4.2 mM, NaCl 146 mM, glucose 5.5 mM and LiCl 50 mM, pH 7.4). Cells are stimulated for 1 h at 37° C., 5% CO2 by addition of the compounds that are diluted in stimulation buffer containing LiCl. Assays are stopped by adding HTRF-conjugates (IP1-d2 and Anti-IP1 cryptate Tb) and lysis buffer, provided by the manufacturer. After an incubation time of 1 h at room temperature plates are measured using an EnVision™, Perkin Elmer. The obtained fluorescence ratios at 665/615 […] are then used to calculate the pEC50 values using Assay Explorer 3.3 Software (Accelrys, Inc.) by interpolation using an IP1 reference curve and subsequent sigmoidal curve fitting allowing for a variable hill slope.

[5] = molecular target: cytochrome P450 2C8-isoenzyme (Homo sapiens (Human), UniProt P10632); assay: Inhibition of CYP-2C8 (amodiaquine deethylation, human liver microsomes); format: in vitro ADME; conditions: amodiaquine 1 μM, 37° C.
Chain of cytochrome P450 2C8-isoenzyme (P10632 whole entry): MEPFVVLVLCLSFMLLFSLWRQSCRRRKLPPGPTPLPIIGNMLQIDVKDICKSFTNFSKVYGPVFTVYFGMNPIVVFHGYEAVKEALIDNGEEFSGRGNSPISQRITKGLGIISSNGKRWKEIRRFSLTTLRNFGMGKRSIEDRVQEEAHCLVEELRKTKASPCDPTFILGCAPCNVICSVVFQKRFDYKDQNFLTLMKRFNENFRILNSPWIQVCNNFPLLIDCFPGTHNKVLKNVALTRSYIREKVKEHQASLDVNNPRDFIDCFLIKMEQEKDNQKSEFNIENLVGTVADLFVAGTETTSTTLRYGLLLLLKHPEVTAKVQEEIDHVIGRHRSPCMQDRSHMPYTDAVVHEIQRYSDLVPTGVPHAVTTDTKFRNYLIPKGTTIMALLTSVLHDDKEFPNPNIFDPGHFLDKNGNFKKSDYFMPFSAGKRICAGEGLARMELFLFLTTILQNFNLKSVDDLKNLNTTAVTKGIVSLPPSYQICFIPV
Protocol: as §1, with “microsomes (0.05” for “microsomes (0.1”, “mg/mL), amodiaquine (1” for “mg/mL), diclofenac (10”, “duplicate (e.g.” for “duplicate (e.g.,”, “isotope d5-desethylamodiaquine—is” for “isotope ^13C6-hydroxydiclofenac—is”, “inhibitor (Montelukast)” for “inhibitor (sulfaphenazole)”

[6] = 1321N1 cells stably expressing human GPR40, 1 h stimulation, read-out: EC50
[7] = head-to-head compilation, given as IC50, values equal the EC50 of Table 2, read-out: GPR40: IC50

Row | Amount of degradation after 2 h [1] | IC50 [2] [µM] | solubility at 24 h [3] [µg/mL] | EC50 [4, 6] [µM] | IC50 [5] [µM] | Solubility at pH value 2.2 [3] [μg/mL] | EC50 [4, 7] [µM] | SMILES
1 | 3% |  |  |  |  |  |  | Cc1cc(-c2nnn(C)n2)cc(C)c1-c1ccc(F)c2c1CC[C@H]2Oc1ccc([C@H]2C[C@@H]2C(=O)O)cc1 [Example 15 in WO 2013/178575]
2 | <0.5% | > 50 | 121 (≈ 233 µM) | 0.035 | > 50 |  |  | Cc1cc(O[C@@H]2COC[C@H]2O)cc(C)c1-c1ccc(F)c2c1CC[C@H]2Nc1ccc([C@H]2C[C@@H]2C(=O)O)nc1 [Example 5, (1S,2S)-2-(5-{(R)-7-Fluoro-4-[4-((3R,4R)-4-hydroxy-tetrahydro-furan-3-yloxy)-2,6-dimethyl-phenyl]-indan-1-ylamino}-pyridin-2-yl)-cyclopropanecarboxylic acid]
3 | 8% |  |  |  |  |  |  | Cc1cc(-c2nnn(C)n2)cc(C)c1-c1ccc(F)c2c1CC[C@H]2Oc1ccc([C@H]2C[C@@H]2C(=O)O)cc1 [Example 33 in WO 2013/178575]
4 |  | > 50 |  | 0.012 | 40 | 103 |  | Cc1cc(O[C@H]2CCOC2)cc(C)c1-c1ccc(F)c2c1CC[C@H]2Nc1ccc([C@H]2C[C@@H]2C(=O)O)nc1 (mixture of isomers) [Example 33]
5 |  | > 50 |  | 0.019 | 41 | 119 |  | Cc1cc(OCC2(O)CCOCC2)cc(C)c1-c1ccc(F)c2c1CC[C@H]2Nc1ccc([C@H]2C[C@@H]2C(=O)O)nc1 [Example 37]
6 | 2.5%^ |  |  |  |  |  |  | Cc1cc(-c2nnn(C)n2)cc(C)c1-c1ccc(F)c2c1CC[C@H]2Oc1ccc([C@H]2C[C@@H]2C(=O)O)cc1 [Example 54 in WO 2013/178575]
7 |  | > 50 |  | 0.002 | 34 | 113 |  | Cc1cc(-c2nnn(CC(C)(C)O)n2)cc(C)c1-c1ccc(F)c2c1CC[C@H]2Nc1ccc([C@H]2C[C@@H]2C(=O)O)nc1 [Example 20]
8 |  | > 50 |  | 0.025 | 40 | 105 |  | Cc1cc(CO)cc(C)c1-c1ccc(F)c2c1CC[C@H]2Nc1ccc([C@H]2C[C@@H]2C(=O)O)nc1 [Example 13]
9 |  | > 50 |  | 0.01 | 45 | 111 |  | Cc1cc(OCC(C)(C)O)cc(C)c1-c1ccc(F)c2c1CC[C@H]2Nc1ccc([C@H]2C[C@@H]2C(=O)O)nc1 [Example 34]
10 |  | 10 | < 1 |  | 5 | < 1 | 0.008 | Cc1cc(-c2nnn(C)n2)cc(C)c1-c1ccc(F)c2c1CC[C@H]2Oc1ccc([C@H]2C[C@@H]2C(=O)O)cc1 [Example 45 in WO 2013/178575, reference compound]
11 |  | > 50 |  | 0.018 | > 50 | >154 |  | Cc1cc(OCC2(O)CCS(=O)(=O)CC2)cc(C)c1-c1ccc(F)c2c1CC[C@H]2Nc1ccc([C@H]2C[C@@H]2C(=O)O)nc1 [Example 38]
12 |  | > 50 |  | 0.01 | 30 | 105 |  | Cc1cc(O[C@@H]2CCOC2)cc(C)c1-c1ccc(F)c2c1CC[C@H]2Nc1ccc([C@H]2C[C@@H]2C(=O)O)nc1 [Example 12]
13 |  | 19 |  | 0.005 | 8 | 106 |  | COc1cc(-c2cc(C)c(-c3ccc(F)c4c3CC[C@H]4Nc3ccc([C@H]4C[C@@H]4C(=O)O)nc3)c(C)c2)ccn1 [Example 22]
14 |  | 22 |  | 0.015 | 10 | 91 |  | CC(C)c1ccccc1-c1ccc(F)c2c1CC[C@H]2Nc1ccc([C@H]2C[C@@H]2C(=O)O)nc1 [Example 36]
15 |  | > 50 | 97 (≈ 176 µM) | 0.007 | > 50 |  | 0.007 | Cc1cc(OCCCS(C)(=O)=O)cc(C)c1-c1ccc(F)c2c1CC[C@H]2Nc1ccc([C@H]2C[C@@H]2C(=O)O)nc1 [Example 4, (1S,2S)-2-(5-{(R)-7-Fluoro-4-[4-(3-methanesulfonyl-propoxy)-2,6-dimethyl-phenyl]-indan-1-ylamino}-pyridin-2-yl)-cyclopropanecarboxylic acid]
16 | 8% | 14 | < 1 |  | 6 | < 1 | 0.004 | Cc1cc(OCCC(C)(C)O)cc(C)c1-c1ccc(F)c2c1CC[C@H]2Oc1ccc([C@H]2C[C@@H]2C(=O)O)cc1 [Example 17 in WO 2013/178575, reference compound]
17 |  | 36 |  | 0.002 | 15 | 91 |  | Cc1cnc(-c2cc(C)c(-c3ccc(F)c4c3CC[C@H]4Nc3ccc([C@H]4C[C@@H]4C(=O)O)nc3)c(C)c2)nc1 [Example 21]
18 |  | > 50 |  | 0.924 | > 50 | 96 |  | Cc1cc(OCC(=O)O)cc(C)c1-c1ccc(F)c2c1CC[C@H]2Nc1ccc([C@H]2C[C@@H]2C(=O)O)nc1 [Example 16]
19 |  | > 50 |  | 0.148 | > 50 | 118 |  | Cc1cc(C(=O)N(C)C)cc(C)c1-c1ccc(F)c2c1CC[C@H]2Nc1ccc([C@H]2C[C@@H]2C(=O)O)nc1 [Example 39]
20 |  | > 50 | 62 (≈ 148 µM) | 0.1 | > 50 |  |  | COc1ccc(-c2cccc3c2CC[C@H]3Nc2ccc([C@H]3C[C@@H]3C(=O)O)nc2)cc1F [Example 8, (1S,2S)-2-{5-[(R)-4-(3-Fluoro-4-methoxy-phenyl)-indan-1-ylamino]-pyridin-2-yl}-cyclopropanecarboxylic acid]

Row | SMILES | Amount of degradation after 2 h [1] | IC50 [2] [µM] | solubility at 24 h [3] [µg/mL] | EC50 [4, 6] [µM] | IC50 [5] [µM] | Solubility at pH value 2.2 [3] [μg/mL] | EC50 [4, 7] [µM]
21 | Cc1cc(OCCC(C)(C)O)cc(C)c1-c1cccc2c1CC[C@H]2Nc1ccc([C@H]2C[C@@H]2C(=O)O)nc1 [Example 7, (1S,2S)-2-(5-{(R)-4-[4-(3-Hydroxy-3-methyl-butoxy)-2,6-dimethyl-phenyl]-indan-1-ylamino}-pyridin-2-yl)-cyclopropanecarboxylic acid] |  | > 50 | 84 (≈ 168 µM) | 0.005 | > 50 |  | 
